Assay results taken from ChEMBL document CHEMBL4373682, “Synergistic effect of tolfenamic acid and glycyrrhizic acid on TPA-induced skin inflammation in mice” (Medchemcomm, 2019).

Key:
Mus musculus [1] = assay: Antiinflammatory activity against TPA-induced ear edema in BALB/c mouse assessed as effect on weight of ear punches at 100 mg/kg, po administered 6 mins prior to TPA challenge and treated twice in 4 hrs and measured after 6 hrs post administration (reference value: 4.5 +/- 0.18 mg); format: functional
Mus musculus [2] = assay: Antiinflammatory activity against TPA-induced ear edema in BALB/c mouse assessed as inhibition of ear edema at 50 mg/kg, po administered 6 mins prior to TPA challenge and treated twice in 4 hrs and measured after 6 hrs post administration relative to control; format: functional
Mus musculus [3] = assay: Antiinflammatory activity against TPA-induced ear edema in BALB/c mouse assessed as inhibition of ear edema at 100 mg/kg, po administered 6 mins prior to TPA challenge and treated twice in 4 hrs and measured after 6 hrs post administration relative to control; format: functional
[4] = Tmax in rat at 10 to 480 mg/kg, po; format: ADME, organism-based; conditions: in vivo

Structure (SMILES)	Activity (Mus musculus [1])	inhibition in vivo at 50 mg/kg (Mus musculus [2])	inhibition in vivo at 100 mg/kg (Mus musculus [3])	Tmax [4]
CC(=O)Oc1ccccc1C(=O)O [ASPIRIN]	11.2 mg	–	–	–
CCc1cccc2c3c([nH]c12)C(CC)(CC(=O)O)OCC3 (stereo not given) [ETODOLAC]	11.1 mg	–	–	–
CC1(C)[C@@H](O[C@H]2O[C@H](C(=O)O)[C@@H](O)[C@H](O)[C@H]2O[C@@H]2O[C@H](C(=O)O)[C@@H](O)[C@H](O)[C@H]2O)CC[C@]2(C)[C@H]3C(=O)C=C4[C@@H]5C[C@@](C)(C(=O)O)CC[C@]5(C)CC[C@@]4(C)[C@]3(C)CC[C@@H]12 [GLYCYRRHIZIN]	12.7 mg	-5.41%	-10.8%	–
CC(C)Cc1ccc(C(C)C(=O)O)cc1 (stereo not given) [IBUPROFEN]	8.8 mg	–	–	–
COc1ccc2cc([C@H](C)C(=O)O)ccc2c1 [NAPROXEN]	11.5 mg	–	–	–
Cc1c(Cl)cccc1Nc1ccccc1C(=O)O [TOLFENAMIC ACID]	–	35.1%	51.4%	2 to 3 h
